According to article PMC11237774, “On-target, dual aminopeptidase inhibition provides cross-species antimalarial activity” (mBio, 2024):

Assays:
Pf3D7 = experiment: 72 h ring killing assay (SYBR Green I); format: cell-based, P. falciparum; details: Plasmodium falciparum, Pf3D7 ring stage
Method: Viability assays were performed as previously described ([7]). Sorbitol-synchronized Pf3D7 (a laboratory strain which is broadly sensitive to standard antimalarial drugs) at ring stages was cultured in the presence of drug serially diluted across a 96-well plate at 0.5% parasitemia and 2% hematocrit. Cultures were grown for 72 h before being placed at −80°C. After thawing, cultures were incubated with equal volumes of lysis buffer (20 mM Tris [pH 7.5], 5 mM EDTA, 0.008% [wt/vol] saponin, and 0.008% [vol/vol] Triton x-100) containing 0.2 µL/mL SYBR Green I Nucleic Acid Gel Stain (10,000× in dimethyl sulfoxide [DMSO]; Thermo Fisher). After 1 h incubation, fluorescence intensity was read on a Glomax Explorer Fully Loaded (Promega) at emission wavelengths of 500–550 nm and an excitation wavelength of 475 nm. Graphs were generated using GraphPad Prism (V.8.4.1). Parasite survival was compared with vehicle-treated cultures in three biological replicates performed in triplicate. This EC50 was used in asexual P. falciparum assays unless otherwise stated.

[1] = system: PfNF54-s16-GFP mature (V) stage gametocytes; experiment: Image-based gametocyte viability assay; format: cell-based, P. falciparum; details: Plasmodium falciparum, 72 h, read-out: IC50 Mature-stage Gametocytes (mean ± SD)
Method: Viability assays were performed as described previously ([32], [33]) against PfNF54-s16-GFP early(I–III), late (IV–V), and mature (V) stage gametocytes. Gametocytes were assessed at the appropriate time points following gametogenesis; early stage (day 2), late stage (day 8), and mature stage (day 12). Compounds diluted in 4% DMSO were transferred into 384-well imaging plates; gametocytes prepared as described previously (35) were added, and plates were incubated for 72 h in 5% CO2, 5% O2, and 60% humidity at 37°C. After 72 h incubation, 5 µL of MitoTracker Red CMH2XRos in phosphate buffered saline (PBS) was added per well, and plates were incubated overnight. Image acquisition and analysis were undertaken on the Opera QEHS micro-plate confocal imaging system. An Acapella-based script using the CMH2XRos fluorescent signal and the GFP-designated object quantifying viable stage-dependent parasite morphology identified gametocytes. Gametocyte viability was calculated as a percentage of the positive (5 µM puromycin) and negative (0.4% DMSO) controls. IC50 values were calculated using a 4-parameter log dose, non-linear regression analysis, with sigmoidal dose response (variable slope) curve fit using GraphPad Prism (ver 4.0). No constraints were used in the curve fit. […] Experiments were performed as two or three biological replicates in duplicate.

[2] = target: T1, human leukotriene A4 hydrolase (LTA4H) (Homo sapiens, UniProt P09960); experiment: Recombinant aminopeptidase fluorescence assay (H-Ala-NHMec); format: biochemical; details: for inhibition at 1.25 µM: 1.25 µM compound; for inhibition at 10 µM: 10 µM compound; for inhibition at 500 µM: 500 µM compound; for inhibition at 1000 µM: 1000 µM compound
T1 construct: purchased OriGene TP307617
T1 sequence (P09960 1-611): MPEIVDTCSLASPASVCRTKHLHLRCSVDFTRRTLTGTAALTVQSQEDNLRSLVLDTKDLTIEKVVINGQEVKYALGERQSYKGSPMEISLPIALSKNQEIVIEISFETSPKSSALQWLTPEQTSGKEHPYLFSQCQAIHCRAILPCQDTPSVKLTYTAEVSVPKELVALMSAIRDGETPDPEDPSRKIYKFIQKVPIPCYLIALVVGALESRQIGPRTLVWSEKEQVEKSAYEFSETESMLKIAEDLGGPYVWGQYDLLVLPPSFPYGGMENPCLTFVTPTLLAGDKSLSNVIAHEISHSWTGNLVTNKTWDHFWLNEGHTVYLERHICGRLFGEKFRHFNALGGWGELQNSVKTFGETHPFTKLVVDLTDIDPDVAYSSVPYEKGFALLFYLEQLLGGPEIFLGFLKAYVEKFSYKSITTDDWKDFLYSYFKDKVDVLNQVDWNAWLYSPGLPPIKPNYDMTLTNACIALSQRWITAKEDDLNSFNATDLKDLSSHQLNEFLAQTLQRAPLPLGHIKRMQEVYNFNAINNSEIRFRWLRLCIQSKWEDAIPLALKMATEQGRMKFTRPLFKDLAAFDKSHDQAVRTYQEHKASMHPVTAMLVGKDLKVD
Method: Inhibition of aminopeptidase activity assays were performed against nine aminopeptidases: the M1 alanyl and M17 leucyl aminopeptidases from P. falciparum (PfA-M1; PfA-M17), P. vivax (Pv-M1; Pv-M17), and P. berghei (Pb-M1; Pb-M17), and three human M1 homologs: LTA4H (OriGene TP307617), ERAP1 (OriGene TP314469), and ERAP2 (Creative BioMart ERAP2-304H). The Plasmodium enzymes were produced recombinantly as described previously ([16], [17]), and the human recombinant enzymes were purchased from commercial suppliers as indicated.
Reactions were measured at 37°C in white 384-well plates in a total volume of 25 or 50 µL using a spectrofluorimeter (BMG FLUOstar) with excitation at 355 nm and emission at 460 nm. The fluorescence signal was continuously monitored until a final steady-state velocity, v, was obtained. Inhibition constants were calculated from biological triplicates made from three different protein preparations.
Substrate concentrations were selected to allow sensitive detection of enzyme activity while not exceeding the Km for each enzyme. A compound concentration range was selected to obtain a complete inhibition curve (0%–100 %) in biological triplicate. Where possible, the Ki values were calculated by plotting the initial rates versus inhibitor concentration and fitting to the Morrison equation for tight-binding inhibitors in GraphPad Prism (V.8.4.1; non-linear regression method).

[3] = system: PfNF54-s16-GFP early (I–III) stage gametocytes; experiment: Image-based gametocyte viability assay; format: cell-based, P. falciparum; details: Plasmodium falciparum; stages I–III, 72 h; read-out: IC50 Early-stage Gametocytes (mean ± SD)
Method: Viability assays were performed as described previously ([32], [33]) against PfNF54-s16-GFP early(I–III), late (IV–V), and mature (V) stage gametocytes. Gametocytes were assessed at the appropriate time points following gametogenesis; early stage (day 2), late stage (day 8), and mature stage (day 12). Compounds diluted in 4% DMSO were transferred into 384-well imaging plates; gametocytes prepared as described previously (35) were added, and plates were incubated for 72 h in 5% CO2, 5% O2, and 60% humidity at 37°C. After 72 h incubation, 5 µL of MitoTracker Red CMH2XRos in phosphate buffered saline (PBS) was added per well, and plates were incubated overnight. Image acquisition and analysis were undertaken on the Opera QEHS micro-plate confocal imaging system. An Acapella-based script using the CMH2XRos fluorescent signal and the GFP-designated object quantifying viable stage-dependent parasite morphology identified gametocytes. Gametocyte viability was calculated as a percentage of the positive (5 µM puromycin) and negative (0.4% DMSO) controls. IC50 values were calculated using a 4-parameter log dose, non-linear regression analysis, with sigmoidal dose response (variable slope) curve fit using GraphPad Prism (ver 4.0). No constraints were used in the curve fit. Chloroquine, artesunate, pyronaridine, pyrimethamine, dihydroartemisinin (DHA), and methylene blue were used as control compounds. Experiments were performed as two or three biological replicates in duplicate.

`CC(C)(C)CC(=O)NC(C(=O)NO)c1ccc(-c2cc(F)c(F)c(F)c2)cc1` (centres unmarked) [MMV1557817, N-(2-(hydroxyamino)−2-oxo-1-(3′,4′,5′-trifluoro-[1,1′-biphenyl]-4-yl)ethyl)-3,3-dimethylbutanamide] showed an EC50 (Pf3D7) of 0.039 µM, an IC50 [1] of 1.47 µM and an inhibition at 1.25 µM [2] of 18%. The inhibition at 10 µM [2] was 16%, the inhibition at 500 µM [2] was 71% and the inhibition at 1000 µM [2] was 87%. The IC50 [3] was 0.099 µM.

Work on `C[C@H]1[C@H](OC(=O)CCC(=O)O)O[C@@H]2O[C@@]3(C)CC[C@H]4[C@H](C)CC[C@@H]1[C@@]24OO3` [artesunate] yielded an EC50 (Pf3D7) of 0.004 µM, an IC50 [1] of 0.051 ± 0.023 µM and an inhibition at 1.25 µM [2] of 0%. It also gave an inhibition at 10 µM [2] of 12.8%, an inhibition at 500 µM [2] of 20.2% and an inhibition at 1000 µM [2] of 36%. It also gave an IC50 [3] of 0.016 ± 0.005 µM.
